Data taken from patent US6967196B1, “Sulfonamide compounds and uses thereof” (Bristol-Myers Squibb Company, priority 1999, dated 2005).
Structures can show the parent of a compound that is named as a salt. Where two headings read alike, the source gives them in different places.

Test system: amyloid β production in transfected H4 (human neuroglioma) cells stably expressing APP constructs
Test: In vitro cell-based assay of inhibitors of amyloid β production (ELISA)
In short: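 Plate wt/variant APP cells; ≥6 h later swap to medium + compound (10-100 μM screen); incubate ~16 h; sample medium; Aβ ELISA with C-terminal capture / N-terminal detection Abs; quantify vs Aβ standard curve.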

[1] = transfected H4 cells stably expressing APP, approximately 16 hours incubation, amyloid β in medium by ELISA, Table B, read-out: ACTIVITY (IC50, inhibition of amyloid β production)
[2] = transfected H4 cells stably expressing APP constructs, approximately 16 hours incubation, amyloid β in medium by ELISA, read-out: ACTIVITY (IC50, inhibition of amyloid β production)
[3] = Homo sapiens, 16 h, transfected H4 cells stably expressing APP constructs, approximately 16 hours incubation, amyloid β in medium by ELISA, read-out: ACTIVITY (IC50, inhibition of amyloid β production)
[4] = Homo sapiens, 16 h, transfected H4 cells expressing APP, approximately 16 hours incubation, amyloid β in medium by ELISA, read-out: ACTIVITY (IC50, inhibition of amyloid β production)
[5] = transfected H4 cells stably expressing APP, approx. 16 h incubation, amyloid β in medium by ELISA, read-out: ACTIVITY (IC50, inhibition of amyloid β production)
[6] = Homo sapiens, 16 h, transfected H4 cells stably expressing APP, approx. 16 h incubation, amyloid β in medium by ELISA, read-out: ACTIVITY (IC50, inhibition of amyloid β production)
[7] = transfected H4 cells stably expressing APP, approximately 16 hours incubation, amyloid β in medium by ELISA, read-out: ACTIVITY (IC50, inhibition of amyloid β production)

## COC(=O)[C@@H](CS(=O)(=O)Cc1cc(F)ccc1[C@@H](C)N(c1cc(F)ccc1F)S(=O)(=O)c1ccc(Cl)cc1)NC(=O)OC(C)(C)C [Example 471, Methyl (2S)-2-[(tert-butoxycarbonyl)amino]-3-{[2-((1R)-1-{[(4-chlorophenyl)sulfonyl]-2,5-difluoroanilino}ethyl)-5-fluorobenzyl]sulfonyl}propanoate]
[1]
  IC50: 50 to 100 nM

## C[C@H](c1ccc(F)cc1CN1CCS(=O)(=O)CC1)N(c1cc(F)ccc1F)S(=O)(=O)c1ccc(Cl)cc1 [Example 405]
Homo sapiens, 16 h, transfected H4 cells stably expressing APP, approximately 16 hours incubation, amyloid β in medium by ELISA, Table B, read-out: ACTIVITY (IC50, inhibition of amyloid β production)
  IC50: 50 to 100 nM

## COC(=O)[C@@H](NC(=O)CC[C@@H](C)N(c1cc(Cl)ccc1F)S(=O)(=O)c1ccc(Cl)cc1)C(C)C [Example 1257, (R)-4-Chloro-N-(5-chloro-2-fluorophenyl)-N-[4-[N-(S)-[1-(methoxycarbonyl)-2-methylpropyl]amino]-1-methyl-4-oxobutyl]benzenesulfonamide]
[2]
  IC50: 50 to 100 nM

## CC1CS(=O)(=O)CCN1C(=O)CCCC[C@@H](C)N(c1cc(Cl)ccc1F)S(=O)(=O)c1ccc(Cl)cc1 (stereo partly shown) [Example 1273]
[2]
  IC50: ≤ 25 nM

## CC(C)Oc1c(NCC[C@@H](C)N(c2cc(F)ccc2F)S(=O)(=O)c2ccc(Cl)cc2)c(=O)c1=O [Example 1125, 4-chloro-N-(2,5-difluorophenyl)-N-[3-(2-isopropoxy-3,4-dioxo-1-cyclobutenyl)amine-1(R)-methylpropyl]benzenesulfonamide]
[2]
  IC50: 50 to 100 nM

## CCN(CC)S(=O)(=O)CCC[C@@H](C)N(c1cc(Cl)ccc1Cl)S(=O)(=O)c1ccc(Cl)cc1 [Example 1213, 4-chloro-N-[2,5-dichlorophenyl]-N-[4-[(diethylamino)sulfonyl]-1(R)-methylbutyl]benzenesulfonamide]
[3]
  IC50: ≤ 25 nM

## COc1cc(CNC(=O)[C@@H](C)N(c2cc(Cl)ccc2F)S(=O)(=O)c2ccc(Cl)cc2)cc(OC)c1OC [Example 1362]
[4]
  IC50: > 500 nM

## N-{3-[2-(1-{[(4-chlorophenyl)sulfonyl]-2,5-difluoroanilino}methyl)phenoxy]propyl}-2-fluoro-N-methylbenzamide [Example 733]
[5]
  IC50: 100 to 500 nM

## (2E)-N-{2-[2-(1-{[(4-chlorophenyl)sulfonyl]-2,5-difluoroanilino}ethyl)phenoxy]ethyl}-N-ethyl-2-butenamide [Example 649]
[5]
  IC50: 100 to 500 nM

## CNC(=O)CCCc1cc(F)ccc1[C@@H](C)N(c1cc(F)ccc1F)S(=O)(=O)c1ccc(Cl)cc1 [Example 498, 4-[2-((1R)-1-{[(4-chlorophenyl)sulfonyl]-2,5-difluoroanilino}ethyl)-5-fluorophenyl]-N-methylbutanamide]
[1]
  IC50: 100 to 500 nM

## O=S(=O)(c1ccc(Cl)cc1)N(Cc1ccccc1OCCCn1ccnc1)c1cc(Cl)ccc1Cl [Example 740, 4-chloro-N-(2,5-dichlorophenyl)-N-{2-[3-(1H-imidazol-1-yl)propoxy]benzyl}benzenesulfonamide hydrochloride]
[6]
  IC50: 100 to 500 nM

## CC(c1ccccc1OCCCN(C)C(=O)c1ccc(-c2ccccc2)cc1)N(c1cc(F)ccc1F)S(=O)(=O)c1ccc(Cl)cc1 (stereo not shown) [Example 840, N-{3-[2-(1-{[(4-chlorophenyl)sulfonyl]-2,5-difluoroanilino}ethyl)phenoxy]propyl}-N-methyl[1,1′-biphenyl]-4-carboxamide]
[7]
  IC50: 100 to 500 nM

## CN1CCCC1CCOc1ccccc1CN(c1ccccc1)S(=O)(=O)c1ccc(Cl)cc1 (stereo not shown) [Example 277, 4-Chloro-N-{2-[2-(1-methyl-2-pyrrolidinyl)ethoxy]benzyl}-N-phenylbenzenesulfonamide Hydrochloride]
[1]
  IC50: 25 to 50 nM

## 4-chloro-N-{3-[2-(1-{[(4-chlorophenyl)sulfonyl]-2,5-difluoroanilino}ethyl)phenoxy]propyl}benzamide [Example 811]
[7]
  IC50: 100 to 500 nM

## Cc1ccc(OCCCN2CCCCC2)c(CN(c2cc(F)ccc2F)S(=O)(=O)c2ccc(Cl)cc2)c1 [Example 232, 4-Chloro-N-(2,5-difluorophenyl)-N-{5-methyl-2-[3-(1-piperidinyl)propoxy]benzyl}benzenesulfonamide hydrochloride]
read-out: ACTIVITY (inhibitory concentration IC50, inhibition of amyloid β production)
  IC50: 25 to 50 nM

## 4-benzoyl-N-((1S)-1-{{(3-[2-({[(4-chlorophenyl)sulfonyl]-2,5-difluoroanilino}methyl)phenoxy]propyl}(methyl)amino]carbonyl}-5-{[5-(2-oxohexahydro- [Example 1053]
[7]
  IC50: > 500 nM

## C[C@H]([C@@H](C)OC(=O)NCCCn1ccnc1)N(c1cc(Cl)ccc1CO)S(=O)(=O)c1ccc(Cl)cc1 [Example 1246, 4-Chloro-N-[5-chloro-2-(hydroxymethyl)phenyl]-N-[2-[[N′-[3-(1H-imidazol-1-yl)propylamino]carbonyl]oxy]-(1R)-(2R)-dimethylethyl]benzenesulfonamide]
[2]
  IC50: ≤ 25 nM

## N-{3-[2-(1-{[(4-chlorophenyl)sulfonyl]-2,5-difluoroanilino}ethyl)phenoxy]propyl}-2-phenylcyclopropanecarboxamide [Example 789]
[5]
  IC50: 100 to 500 nM

## N-{3-[2-(1-{[(4-chlorophenyl)sulfonyl]-2,5-difluoroanilino}ethyl)phenoxy]propyl}-N-methyl-2,5-bis(trifluoromethyl)benzamide [Example 892]
[7]
  IC50: > 500 nM

## Cc1ccc(C(=O)N2CCCCC2CCOc2ccccc2CN(c2cc(F)ccc2F)S(=O)(=O)c2ccc(Cl)cc2)cc1 (stereo not shown) [Example 884, 4-chloro-N-(2,5-difluorophenyl)-N-(2-{2-[1-(4-methylbenzoyl)-2-piperidinyl]ethoxy}benzyl)benzenesulfonamide]
Homo sapiens, 16 h, transfected H4 cells stably expressing APP, approximately 16 hours incubation, amyloid β in medium by ELISA, read-out: ACTIVITY (IC50, inhibition of amyloid β production)
  IC50: > 500 nM

## 3,4-dichloro-N-{3-[2-(1-{[(4-chlorophenyl)sulfonyl]-2,5-difluoroanilino}ethyl)phenoxy]propyl}-N-methylbenzenesulfonamide [Example 822]
[7]
  IC50: 100 to 500 nM

## C[C@H](CCCNC(=O)C(C)(C)C)N(c1cc(Cl)ccc1Cl)S(=O)(=O)c1ccc(Cl)cc1 (stereo in doubt) [Example 1137, 4-chloro-N-(2,5-dichlorophenyl)-N-[4-[[(1,1-dimethylethyl)carbonyl]amino]-1-methylbutyl]benzenesulfonamide]
[3]
  IC50: 100 to 500 nM

## CSC1CCN(CC[C@@H](C)N(c2cc(Cl)ccc2Cl)S(=O)(=O)c2ccc(Cl)cc2)CC1 [Example 1156, 4-chloro-N-(2,5-dichlorophenyl)-N-[3-[(4-methylthio)-1-piperidinyl]-1(R)-methylpropyl]benzenesulfonamide]
[2]
  IC50: 100 to 500 nM

## C[C@H](C(=O)NC[C@]12CC3C[C@H](C[C@H](C3)C1)C2)N(c1cc(Cl)ccc1F)S(=O)(=O)c1ccc(Cl)cc1 [Example 1306]
[4]
  IC50: > 500 nM

## 4-chloro-N-(2,5-difluorophenyl)-N-[3-[2-[4-chloro-N-(2,5-difluorophenyl)-N-[(3-amino)-1(R)-methylpropyl]benzenesulfonamide]-3,4-dioxo-1-cyclobutenyl)amine-1(R)- [Example 1139]
[2]
  IC50: 100 to 500 nM

## S-methyl 4-[2-(1-{3-[2-(1-{[(4-chlorophenyl)sulfonyl]-2,5-difluoroanilino}ethyl)phenoxy]butyl(ethyl)thiocarbamate [Example 714]
[5]
  IC50: 100 to 500 nM

## CCN(CC)C(=O)N(CC)CCOc1ccccc1C(C)N(c1cc(F)ccc1F)S(=O)(=O)c1ccc(Cl)cc1 (stereo not shown) [Example 698, 4-chloro-N-[1-(2-{2-[[(diethylamino)carbonyl](ethyl)amino]ethoxy}phenyl)ethyl]-N-(2,5-difluorophenyl)benzenesulfonamide]
[6]
  IC50: 100 to 500 nM

## CC(C)(C)OC(=O)N1CCN(CCCOc2ccccc2CN(c2ccccc2)S(=O)(=O)c2ccc(Cl)cc2)CC1 [Example 288, Tert-butyl 4-{3-[2-({[(4 chlorophenyl)sulfonyl}anilino}methyl)phenoxy]propyl}-1-piperazinecarboxylate]
[1]
  IC50: 25 to 50 nM

## C[C@H](COC(=O)N1CCCC1)N(c1cc(Cl)ccc1CO)S(=O)(=O)c1ccc(Cl)cc1 [Example 1287]
[4]
  IC50: ≤ 25 nM

## N-{3-[2-({[(4-chlorophenyl)sulfonyl]-2,5-difluoroanilino}methyl)phenoxy]propyl}-2,3-difluoro-N-methylbenzamide [Example 665]
[5]
  IC50: 100 to 500 nM

## CC(c1ccccc1OCCCn1ccnc1)N(c1cc(F)ccc1F)S(=O)(=O)c1ccc(Cl)cc1 (stereo not shown) [Example 321, 4-Chloro-N-(2,5-difluorophenyl)-N-1-{2-[3-(1H-imidazol-1-yl)propoxy]phenyl}ethyl)benzenesulfonamide Hydrochloride]
[1]
  IC50: 50 to 100 nM

## C[C@H](C(=O)NCc1ccco1)C(c1cc(Cl)ccc1F)S(=O)(=O)c1ccc(Cl)cc1 (stereo partly shown) [Example 1300]
[4]
  IC50: 100 to 500 nM

## C[C@H](C(=O)NCCCCc1ccccc1)N(c1cc(Cl)ccc1F)S(=O)(=O)c1ccc(Cl)cc1 [Example 1324]
[4]
  IC50: > 500 nM

## O=S1(=O)c2ccc(Cl)cc2-c2ccccc2N1Cc1ccccc1OCCCN1CCCCC1 [Example 948, 2-chloro-5-{2-[3-(1-piperidinyl)propoxy]benzyl}-6H-dibenzo]c,e][1,2]thiazine 5,5-dioxide hydrochloride]
[7]
  IC50: > 500 nM
